Data on eleven molecules can be found in patent publication US11230526B1, “Cylcoalkenyl derivatives useful as agonists of the GPR120 and/or GPR40 receptors” (Janssen Pharmaceutica NV, priority 2018, dated 2022).

Type in all cases: cell-based
One test addresses T1, Human GPR120 short form (Homo sapiens, UniProt Q5NUL3).
T1 construct: expressed in transfected cells
T1 sequence (Q5NUL3 1-361): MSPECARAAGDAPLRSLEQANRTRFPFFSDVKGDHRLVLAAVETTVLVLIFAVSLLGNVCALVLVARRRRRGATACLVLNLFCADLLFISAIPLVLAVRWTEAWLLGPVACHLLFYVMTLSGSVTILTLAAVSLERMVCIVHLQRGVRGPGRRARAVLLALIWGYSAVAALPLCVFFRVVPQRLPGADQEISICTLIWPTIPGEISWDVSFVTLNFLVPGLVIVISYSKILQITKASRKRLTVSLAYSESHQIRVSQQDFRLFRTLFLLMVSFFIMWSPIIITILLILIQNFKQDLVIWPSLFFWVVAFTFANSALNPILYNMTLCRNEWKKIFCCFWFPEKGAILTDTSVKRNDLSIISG
Briefly: Human GPR120 calcium flux assay, Procedure Calcium B (4200 cells/well). A digest of the protocol: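 Agonist EC50 came from a four-parameter fit of RFU (Fmax−Fmin) read over 300 s on FLIPR. Cells were HEK293 stably transfected with human GPR120 (NM_001195755.1) at 4200 per well, serum-starved 1 h and loaded with Fluo-4 NW dye with probenecid before ligand addition.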
(Calcium flux is commonly read through the fluorescence of an indicator in the cells.)

For test [1], the target named is T2, long form of human GPR120 (Homo sapiens, UniProt Q5NUL3).
T2 construct: host or cells: PathHunter CHO-K1 GPR120 β-Arrestin Cell Line
T2 sequence (Q5NUL3 1-377 isoform Q5NUL3-1): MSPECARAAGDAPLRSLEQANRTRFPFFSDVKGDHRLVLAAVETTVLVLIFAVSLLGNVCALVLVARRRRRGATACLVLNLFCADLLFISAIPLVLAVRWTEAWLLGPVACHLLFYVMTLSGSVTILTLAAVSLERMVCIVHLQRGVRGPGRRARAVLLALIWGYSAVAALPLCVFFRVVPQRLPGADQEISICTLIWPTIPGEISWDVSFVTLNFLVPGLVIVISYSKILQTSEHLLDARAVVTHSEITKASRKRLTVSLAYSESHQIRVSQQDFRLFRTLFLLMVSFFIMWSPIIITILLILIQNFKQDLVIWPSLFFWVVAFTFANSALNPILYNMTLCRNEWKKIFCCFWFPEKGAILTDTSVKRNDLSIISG
T2 sequence (P32121 whole entry partner): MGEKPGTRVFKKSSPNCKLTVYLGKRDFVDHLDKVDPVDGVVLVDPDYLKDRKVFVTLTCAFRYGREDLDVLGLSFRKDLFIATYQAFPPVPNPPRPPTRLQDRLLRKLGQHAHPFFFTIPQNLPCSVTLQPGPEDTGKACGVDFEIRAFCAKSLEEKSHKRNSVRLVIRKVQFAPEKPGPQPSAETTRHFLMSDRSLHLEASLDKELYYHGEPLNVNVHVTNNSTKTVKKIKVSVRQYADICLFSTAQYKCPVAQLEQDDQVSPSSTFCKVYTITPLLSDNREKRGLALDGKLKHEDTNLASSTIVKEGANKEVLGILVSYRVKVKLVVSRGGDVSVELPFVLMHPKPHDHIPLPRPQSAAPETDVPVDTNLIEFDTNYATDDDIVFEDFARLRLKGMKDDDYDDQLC
Put plainly: Human GPR120 DiscoveRx PathHunter Beta-Arrestin assay, Procedure β-arrestin A. The method in brief:
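PathHunter CHO-K1 cells expressing long-form human GPR120 (3000/well) were seeded overnight. They were then preincubated 60 min in HBSS with 20 mM HEPES and 0.1% BSA, pH 7.4, and exposed to compound for 90 min at 37 °C. β-Arrestin recruitment was read as β-gal complementation luminescence. EC50 came from % activity versus positive control, Hill slope fixed at 1.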

Another test deals with T3, human GPR40 (Homo sapiens, UniProt O14842).
T3 construct: expressed in transfected cells
T3 sequence (O14842 whole entry): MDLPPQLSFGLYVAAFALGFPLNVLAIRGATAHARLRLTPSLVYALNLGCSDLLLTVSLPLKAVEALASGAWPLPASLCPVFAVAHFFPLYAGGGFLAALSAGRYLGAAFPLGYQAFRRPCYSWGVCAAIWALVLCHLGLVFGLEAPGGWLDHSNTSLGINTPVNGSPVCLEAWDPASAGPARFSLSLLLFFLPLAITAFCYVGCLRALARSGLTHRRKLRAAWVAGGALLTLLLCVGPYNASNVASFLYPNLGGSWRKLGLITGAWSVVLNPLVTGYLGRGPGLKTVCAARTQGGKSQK
Put plainly: GPR40 calcium flux assay, human GPR40. The note with it: HEK293 cells stably expressing GPR40; table does not say human or rat. The method in brief:
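Cells preincubated 1 h at 37° C. in HBSS, 20 mM HEPES, 0.1% BSA, then Fluo 8 calcium dye 30 min at 37° C. and 15 min at room temperature.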

pEC50: −log10 of the molar value.

As for `O=C(O)CCc1ccc(OCC2=C(c3ccc(F)cc3)CC(F)(F)C2)c(Cl)c1` [Compound 203, 3-[3-chloro-4-[[4,4-difluoro-2-(4-fluorophenyl)cyclopenten-1-yl]methoxy]phenyl]Propanoic Acid], the pEC50 – broadly, −log10 of the EC50, conventionally taken in molar units – on Human GPR120 short form was 7.10; in test [1] it was 7.25; on human GPR40, < 5.30.
As to `Cc1cc(CCC(=O)O)cc(F)c1OCC1=C(c2ccc(F)cc2)CC(F)(F)C1` [Compound 204, 3-[4-[[4,4-difluoro-2-(4-fluorophenyl)cyclopenten-1-yl]methoxy]-3-fluoro-5-methyl-phenyl]Propanoic Acid], the pEC50 at Human GPR120 short form was 6.90; in test [1], 6.44; at human GPR40 it was < 5.30.
Consider `Cc1c(CCC(=O)O)ccc(OCC2=C(c3ccco3)CCC2)c1C` [Compound 210, 3-[4-[[2-(2-furyl)cyclopenten-1-yl]methoxy]-2,3-dimethyl-phenyl]Propanoic Acid], for which the pEC50 is 6.86 at Human GPR120 short form, 6.96 in test [1] and < 5.30 at human GPR40.
For `O=C(O)CCc1ccc(OCC2=C(c3ccc(F)cc3)CC(F)(F)C2)c(F)c1` [Compound 214, 3-[4-[[4,4-difluoro-2-(4-fluorophenyl)cyclopenten-1-yl]methoxy]-3-fluoro-phenyl]Propanoic Acid] the same measures were 7.11, 7.08 and < 5.30.
The like results for `O=C(O)CCc1cc(F)c(OCC2=C(c3cccc(F)c3)CC(F)(F)C2)c(F)c1` [Compound 215, 3-[4-[[4,4-difluoro-2-(3-fluorophenyl)cyclopenten-1-yl]methoxy]-3,5-difluoro-phenyl]Propanoic Acid] were, in that order, 7.12, 6.55 and < 5.30.
As for `O=C(O)CCc1cc(F)c(OCC2=C(c3ccc(F)cc3F)CC(F)(F)C2)c(F)c1` [Compound 216, 3-[4-[[2-(2,4-difluorophenyl)-4,4-difluoro-cyclopenten-1-yl]methoxy]-3,5-difluoro-phenyl]Propanoic Acid], the figures for the negative-log EC50 (pEC50) (at Human GPR120 short form; in test [1]; at human GPR40) were 7.12, 6.77 and < 5.30, respectively.
As to `COc1ncc(C2=C(COc3ccc(CCC(=O)O)cc3C)CCC2)cc1F` [Compound 222, 3-[4-[[2-(5-fluoro-6-methoxy-3-pyridyl)cyclopenten-1-yl]methoxy]-3-methyl-phenyl]Propanoic Acid], the pEC50 on Human GPR120 short form was 7.24; in test [1], 6.88; at human GPR40 it was < 5.30.
Take `COc1ncc(C2=C(COc3ccc(CCC(=O)O)c(C)c3C)CCC2)cc1F` [Compound 223, 3-[4-[[2-(5-fluoro-6-methoxy-3-pyridyl)cyclopenten-1-yl]methoxy]-2,3-dimethyl-phenyl]Propanoic Acid]: the pEC50 was 6.81 at Human GPR120 short form, 6.64 in test [1] and < 5.30 at human GPR40.
`COc1ncc(C2=C(COc3c(F)cc(CCC(=O)O)cc3F)CCC2)cc1F` [Compound 224, 3-[3,5-difluoro-4-[[2-(5-fluoro-6-methoxy-3-pyridyl)cyclopenten-1-yl]methoxy]phenyl]Propanoic Acid]: the figures for the pEC50 (at Human GPR120 short form; in test [1]; on human GPR40) were 6.55, 6.64 and < 5.30, respectively.
Turning to `CCOc1ccc(C2=C(COc3ccc(CCC(=O)O)cc3C)CCC2)cn1` [Compound 225, 3-[4-[[2-(6-ethoxy-3-pyridyl)cyclopenten-1-yl]methoxy]-3-methyl-phenyl]Propanoic Acid], the pEC50 on Human GPR120 short form was 6.28; in test [1], 6.23; at human GPR40, < 5.30.
`CCOc1ccc(C2=C(COc3c(F)cc(CCC(=O)O)cc3F)CCC2)cn1` [Compound 226, 3-[4-[[2-(6-ethoxy-3-pyridyl)cyclopenten-1-yl]methoxy]-3,5-difluoro-phenyl]Propanoic Acid]: the pEC50 at Human GPR120 short form was 6.14; in test [1] it was 5.89; on human GPR40, < 5.30.
